Laboratory results taken from the OligoGym collection.
Oligonucleotides are given in HELM: sugar(base)linkage, 5' to 3'; d 2'-deoxyribose, r ribose, m 2'-O-methylribose, p phosphate. ss, as = sense and antisense strand

target: SOST; assay: reporter assay of Huesken 2005; conditions: siRNA
Note: test concentration or dose not given here.

Substance	normalised inhibition (eCFP-eYFP dual reporter)
RNA1{r(C)p.r(C)p.r(G)p.r(U)p.r(G)p.r(C)p.r(C)p.r(G)p.r(C)p.r(A)p.r(G)p.r(C)p.r(G)p.r(C)p.r(C)p.r(A)p.r(A)p.r(G)p.r(C)p.d(T)p.d(T)}|RNA2{r(G)p.r(C)p.r(U)p.r(U)p.r(G)p.r(G)p.r(C)p.r(G)p.r(C)p.r(U)p.r(G)p.r(C)p.r(G)p.r(G)p.r(C)p.r(A)p.r(C)p.r(G)p.r(G)p.d(C)p.d(C)}$$$RNA1{StrandType:ss}|RNA2{StrandType:as}$	50.5%
RNA1{r(C)p.r(C)p.r(G)p.r(U)p.r(G)p.r(U)p.r(A)p.r(G)p.r(U)p.r(G)p.r(G)p.r(A)p.r(G)p.r(G)p.r(G)p.r(C)p.r(C)p.r(A)p.r(G)p.d(T)p.d(T)}|RNA2{r(C)p.r(U)p.r(G)p.r(G)p.r(C)p.r(C)p.r(C)p.r(U)p.r(C)p.r(C)p.r(A)p.r(C)p.r(U)p.r(A)p.r(C)p.r(A)p.r(C)p.r(G)p.r(G)p.d(A)p.d(A)}$$$RNA1{StrandType:ss}|RNA2{StrandType:as}$	55.2%
RNA1{r(C)p.r(C)p.r(U)p.r(C)p.r(C)p.r(A)p.r(C)p.r(C)p.r(G)p.r(G)p.r(A)p.r(G)p.r(C)p.r(U)p.r(G)p.r(G)p.r(A)p.r(G)p.r(A)p.d(T)p.d(T)}|RNA2{r(U)p.r(C)p.r(U)p.r(C)p.r(C)p.r(A)p.r(G)p.r(C)p.r(U)p.r(C)p.r(C)p.r(G)p.r(G)p.r(U)p.r(G)p.r(G)p.r(A)p.r(G)p.r(G)p.d(C)p.d(T)}$$$RNA1{StrandType:ss}|RNA2{StrandType:as}$	68.8%
RNA1{r(C)p.r(G)p.r(A)p.r(U)p.r(G)p.r(G)p.r(G)p.r(C)p.r(C)p.r(G)p.r(U)p.r(G)p.r(C)p.r(C)p.r(G)p.r(C)p.r(A)p.r(G)p.r(C)p.d(T)p.d(T)}|RNA2{r(G)p.r(C)p.r(U)p.r(G)p.r(C)p.r(G)p.r(G)p.r(C)p.r(A)p.r(C)p.r(G)p.r(G)p.r(C)p.r(C)p.r(C)p.r(A)p.r(U)p.r(C)p.r(G)p.d(G)p.d(T)}$$$RNA1{StrandType:ss}|RNA2{StrandType:as}$	51%
RNA1{r(C)p.r(G)p.r(C)p.r(C)p.r(A)p.r(A)p.r(G)p.r(C)p.r(C)p.r(G)p.r(G)p.r(U)p.r(C)p.r(A)p.r(C)p.r(C)p.r(G)p.r(A)p.r(G)p.d(T)p.d(T)}|RNA2{r(C)p.r(U)p.r(C)p.r(G)p.r(G)p.r(U)p.r(G)p.r(A)p.r(C)p.r(C)p.r(G)p.r(G)p.r(C)p.r(U)p.r(U)p.r(G)p.r(G)p.r(C)p.r(G)p.d(C)p.d(T)}$$$RNA1{StrandType:ss}|RNA2{StrandType:as}$	59.1%
RNA1{r(C)p.r(G)p.r(C)p.r(C)p.r(U)p.r(G)p.r(C)p.r(U)p.r(G)p.r(C)p.r(C)p.r(C)p.r(A)p.r(A)p.r(C)p.r(G)p.r(C)p.r(C)p.r(A)p.d(T)p.d(T)}|RNA2{r(U)p.r(G)p.r(G)p.r(C)p.r(G)p.r(U)p.r(U)p.r(G)p.r(G)p.r(G)p.r(C)p.r(A)p.r(G)p.r(C)p.r(A)p.r(G)p.r(G)p.r(C)p.r(G)p.d(C)p.d(G)}$$$RNA1{StrandType:ss}|RNA2{StrandType:as}$	64.6%
RNA1{r(C)p.r(G)p.r(C)p.r(G)p.r(A)p.r(G)p.r(C)p.r(U)p.r(G)p.r(C)p.r(A)p.r(C)p.r(U)p.r(U)p.r(C)p.r(A)p.r(C)p.r(C)p.r(C)p.d(T)p.d(T)}|RNA2{r(G)p.r(G)p.r(G)p.r(U)p.r(G)p.r(A)p.r(A)p.r(G)p.r(U)p.r(G)p.r(C)p.r(A)p.r(G)p.r(C)p.r(U)p.r(C)p.r(G)p.r(C)p.r(G)p.d(G)p.d(C)}$$$RNA1{StrandType:ss}|RNA2{StrandType:as}$	54.8%
RNA1{r(C)p.r(G)p.r(C)p.r(G)p.r(C)p.r(G)p.r(C)p.r(G)p.r(C)p.r(G)p.r(C)p.r(A)p.r(A)p.r(G)p.r(G)p.r(U)p.r(G)p.r(C)p.r(G)p.d(T)p.d(T)}|RNA2{r(C)p.r(G)p.r(C)p.r(A)p.r(C)p.r(C)p.r(U)p.r(U)p.r(G)p.r(C)p.r(G)p.r(C)p.r(G)p.r(C)p.r(G)p.r(C)p.r(G)p.r(C)p.r(G)p.d(G)p.d(C)}$$$RNA1{StrandType:ss}|RNA2{StrandType:as}$	60.6%
RNA1{r(C)p.r(G)p.r(G)p.r(C)p.r(G)p.r(C)p.r(G)p.r(C)p.r(C)p.r(U)p.r(G)p.r(C)p.r(U)p.r(G)p.r(C)p.r(C)p.r(C)p.r(A)p.r(A)p.d(T)p.d(T)}|RNA2{r(U)p.r(U)p.r(G)p.r(G)p.r(G)p.r(C)p.r(A)p.r(G)p.r(C)p.r(A)p.r(G)p.r(G)p.r(C)p.r(G)p.r(C)p.r(G)p.r(C)p.r(C)p.r(G)p.d(G)p.d(G)}$$$RNA1{StrandType:ss}|RNA2{StrandType:as}$	84.6%
RNA1{r(C)p.r(G)p.r(G)p.r(U)p.r(C)p.r(A)p.r(C)p.r(C)p.r(G)p.r(A)p.r(G)p.r(C)p.r(U)p.r(G)p.r(G)p.r(U)p.r(G)p.r(U)p.r(G)p.d(T)p.d(T)}|RNA2{r(C)p.r(A)p.r(C)p.r(A)p.r(C)p.r(C)p.r(A)p.r(G)p.r(C)p.r(U)p.r(C)p.r(G)p.r(G)p.r(U)p.r(G)p.r(A)p.r(C)p.r(C)p.r(G)p.d(G)p.d(C)}$$$RNA1{StrandType:ss}|RNA2{StrandType:as}$	52.2%
RNA1{r(C)p.r(G)p.r(U)p.r(G)p.r(U)p.r(A)p.r(G)p.r(U)p.r(G)p.r(G)p.r(A)p.r(G)p.r(G)p.r(G)p.r(C)p.r(C)p.r(A)p.r(G)p.r(G)p.d(T)p.d(T)}|RNA2{r(C)p.r(C)p.r(U)p.r(G)p.r(G)p.r(C)p.r(C)p.r(C)p.r(U)p.r(C)p.r(C)p.r(A)p.r(C)p.r(U)p.r(A)p.r(C)p.r(A)p.r(C)p.r(G)p.d(G)p.d(A)}$$$RNA1{StrandType:ss}|RNA2{StrandType:as}$	60.7%
RNA1{r(C)p.r(G)p.r(U)p.r(G)p.r(U)p.r(C)p.r(C)p.r(G)p.r(A)p.r(G)p.r(U)p.r(A)p.r(C)p.r(A)p.r(G)p.r(C)p.r(U)p.r(G)p.r(C)p.d(T)p.d(T)}|RNA2{r(G)p.r(C)p.r(A)p.r(G)p.r(C)p.r(U)p.r(G)p.r(U)p.r(A)p.r(C)p.r(U)p.r(C)p.r(G)p.r(G)p.r(A)p.r(C)p.r(A)p.r(C)p.r(G)p.d(T)p.d(C)}$$$RNA1{StrandType:ss}|RNA2{StrandType:as}$	54.8%
RNA1{r(C)p.r(U)p.r(A)p.r(C)p.r(C)p.r(G)p.r(C)p.r(G)p.r(C)p.r(G)p.r(C)p.r(A)p.r(G)p.r(C)p.r(G)p.r(C)p.r(G)p.r(U)p.r(G)p.d(T)p.d(T)}|RNA2{r(C)p.r(A)p.r(C)p.r(G)p.r(C)p.r(G)p.r(C)p.r(U)p.r(G)p.r(C)p.r(G)p.r(C)p.r(G)p.r(C)p.r(G)p.r(G)p.r(U)p.r(A)p.r(G)p.d(C)p.d(G)}$$$RNA1{StrandType:ss}|RNA2{StrandType:as}$	50.5%
RNA1{r(C)p.r(U)p.r(C)p.r(A)p.r(A)p.r(G)p.r(G)p.r(A)p.r(C)p.r(U)p.r(U)p.r(C)p.r(G)p.r(G)p.r(G)p.r(A)p.r(C)p.r(C)p.r(G)p.d(T)p.d(T)}|RNA2{r(C)p.r(G)p.r(G)p.r(U)p.r(C)p.r(C)p.r(C)p.r(G)p.r(A)p.r(A)p.r(G)p.r(U)p.r(C)p.r(C)p.r(U)p.r(U)p.r(G)p.r(A)p.r(G)p.d(C)p.d(T)}$$$RNA1{StrandType:ss}|RNA2{StrandType:as}$	62.6%
RNA1{r(C)p.r(U)p.r(C)p.r(G)p.r(G)p.r(A)p.r(G)p.r(A)p.r(G)p.r(U)p.r(A)p.r(C)p.r(C)p.r(C)p.r(C)p.r(G)p.r(A)p.r(G)p.r(C)p.d(T)p.d(T)}|RNA2{r(G)p.r(C)p.r(U)p.r(C)p.r(G)p.r(G)p.r(G)p.r(G)p.r(U)p.r(A)p.r(C)p.r(U)p.r(C)p.r(U)p.r(C)p.r(C)p.r(G)p.r(A)p.r(G)p.d(C)p.d(T)}$$$RNA1{StrandType:ss}|RNA2{StrandType:as}$	44.4%
RNA1{r(C)p.r(U)p.r(G)p.r(G)p.r(U)p.r(G)p.r(G)p.r(C)p.r(C)p.r(U)p.r(C)p.r(G)p.r(U)p.r(G)p.r(C)p.r(A)p.r(A)p.r(G)p.r(U)p.d(T)p.d(T)}|RNA2{r(A)p.r(C)p.r(U)p.r(U)p.r(G)p.r(C)p.r(A)p.r(C)p.r(G)p.r(A)p.r(G)p.r(G)p.r(C)p.r(C)p.r(A)p.r(C)p.r(C)p.r(A)p.r(G)p.d(G)p.d(C)}$$$RNA1{StrandType:ss}|RNA2{StrandType:as}$	52.5%
RNA1{r(C)p.r(U)p.r(U)p.r(C)p.r(A)p.r(C)p.r(C)p.r(C)p.r(G)p.r(C)p.r(U)p.r(A)p.r(C)p.r(G)p.r(U)p.r(G)p.r(A)p.r(C)p.r(C)p.d(T)p.d(T)}|RNA2{r(G)p.r(G)p.r(U)p.r(C)p.r(A)p.r(C)p.r(G)p.r(U)p.r(A)p.r(G)p.r(C)p.r(G)p.r(G)p.r(G)p.r(U)p.r(G)p.r(A)p.r(A)p.r(G)p.d(T)p.d(G)}$$$RNA1{StrandType:ss}|RNA2{StrandType:as}$	59.4%
RNA1{r(G)p.r(A)p.r(A)p.r(C)p.r(G)p.r(G)p.r(A)p.r(G)p.r(G)p.r(G)p.r(C)p.r(G)p.r(G)p.r(C)p.r(C)p.r(U)p.r(C)p.r(C)p.r(C)p.d(T)p.d(T)}|RNA2{r(G)p.r(G)p.r(G)p.r(A)p.r(G)p.r(G)p.r(C)p.r(C)p.r(G)p.r(C)p.r(C)p.r(C)p.r(U)p.r(C)p.r(C)p.r(G)p.r(U)p.r(U)p.r(C)p.d(T)p.d(C)}$$$RNA1{StrandType:ss}|RNA2{StrandType:as}$	52.6%
RNA1{r(G)p.r(A)p.r(C)p.r(G)p.r(U)p.r(G)p.r(U)p.r(C)p.r(C)p.r(G)p.r(A)p.r(G)p.r(U)p.r(A)p.r(C)p.r(A)p.r(G)p.r(C)p.r(U)p.d(T)p.d(T)}|RNA2{r(A)p.r(G)p.r(C)p.r(U)p.r(G)p.r(U)p.r(A)p.r(C)p.r(U)p.r(C)p.r(G)p.r(G)p.r(A)p.r(C)p.r(A)p.r(C)p.r(G)p.r(U)p.r(C)p.d(T)p.d(T)}$$$RNA1{StrandType:ss}|RNA2{StrandType:as}$	75.8%
RNA1{r(G)p.r(A)p.r(G)p.r(G)p.r(G)p.r(C)p.r(C)p.r(A)p.r(G)p.r(G)p.r(G)p.r(G)p.r(U)p.r(G)p.r(G)p.r(C)p.r(A)p.r(G)p.r(G)p.d(T)p.d(T)}|RNA2{r(C)p.r(C)p.r(U)p.r(G)p.r(C)p.r(C)p.r(A)p.r(C)p.r(C)p.r(C)p.r(C)p.r(U)p.r(G)p.r(G)p.r(C)p.r(C)p.r(C)p.r(U)p.r(C)p.d(C)p.d(A)}$$$RNA1{StrandType:ss}|RNA2{StrandType:as}$	71.1%
